# Measured values reported in US11357230B2, “Herbicidal amides” (FMC Corporation, priority 2017, dated 2022).
# Key:
# Type in all cases: in vivo
# Foxtail, Giant [1] = assay: Test A preemergence, giant foxtail; conditions: approximately 10 d
# [2] = system: ragweed (common ragweed, Ambrosia elatior); assay: Test A preemergence, ragweed; conditions: approximately 10 d
# Text: (§1) Seeds of plant species selected from barnyardgrass (Echinochloa crus-galli), kochia (Kochia scoparia), ragweed (common ragweed, Ambrosia elatior), ryegrass, Italian (Italian ryegrass, Lolium multiflorum), foxtail, green (green foxtail, Setaria viridis), and pigweed (Amaranthus retroflexus) were planted into a blend of loam soil and sand and treated preemergence with a directed soil spray using test chemicals formulated in a non-phytotoxic solvent mixture which included a surfactant. At the same time, plants selected from these weed species and also wheat (Triticum aestivum), corn (Zea mays), blackgrass (Alopecurus myosuroides), and galium (catchweed bedstraw, Galium aparine) were planted in pots containing the same blend of loam soil and sand and treated with postemergence applications of test chemicals formulated in the same manner. Plants ranged in height from 2 to 10 cm and were in the one- to two-leaf stage for the postemergence treatment. Treated plants and untreated controls were maintained in a greenhouse for approximately 10 d, after which time all treated plants were compared to untreated controls and visually evaluated for injury. Plant response ratings, summarized in Table A, are based on a 0 to 100 scale where 0 is no effect and 100 is complete control. A dash (-) response means no test result.
# [3] = system: ryegrass, Italian (Italian ryegrass, Lolium multiflorum); assay: Test A preemergence, Italian ryegrass; conditions: approximately 10 d
# Text: as §1
# [4] = system: ragweed (common ragweed, Ambrosia elatior); assay: Test A postemergence, ragweed; conditions: approximately 10 d
# Text: as §1
# [5] = system: galium (catchweed bedstraw, Galium aparine); assay: Test A postemergence, galium; conditions: approximately 10 d
# Text: as §1
# corn (Zea mays) = assay: Test A postemergence, corn; conditions: approximately 10 d
# Text: as §1
# [6] = system: blackgrass (Alopecurus myosuroides); assay: Test A postemergence, blackgrass; conditions: approximately 10 d
# Text: as §1
# [7] = system: barnyardgrass (Echinochloa crus-galli); assay: Test B flooded paddy test, barnyardgrass; conditions: 250 g ai/ha, Flood (paddy water), 13 to 15 d
# Description: (§2) Plant species in the flooded paddy test selected from rice (Oryza sativa), sedge, umbrella (small-flower umbrella sedge, Cyperus difformis), ducksalad (Heteranthera limosa), and barnyardgrass (Echinochloa crus-galli) were grown to the 2-leaf stage for testing. At time of treatment, test pots were flooded to 3 cm above the soil surface, treated by application of test compounds directly to the paddy water, and then maintained at that water depth for the duration of the test. Treated plants and controls were maintained in a greenhouse for 13 to 15 d, after which time all species were compared to controls and visually evaluated. Plant response ratings, summarized in Table B, are based on a scale of 0 to 100 where 0 is no effect and 100 is complete control. A dash (-) response means no test result.
# [8] = system: pigweed (Amaranthus retroflexus); assay: Test A postemergence, pigweed; conditions: approximately 10 d
# Text: as §1
# rice (Oryza sativa) = assay: Test B flooded paddy test, rice; conditions: 250 g ai/ha, Flood (paddy water), 13 to 15 d
# Description: as §2
# [9] = system: sedge, umbrella (small-flower umbrella sedge, Cyperus difformis); assay: Test B flooded paddy test, umbrella sedge; conditions: 250 g ai/ha, Flood (paddy water), 13 to 15 d
# Description: as §2
# [10] = system: barnyardgrass (Echinochloa crus-galli); assay: Test A postemergence, barnyardgrass; conditions: approximately 10 d
# Text: as §1
# kochia (Kochia scoparia) [11] = assay: Test A preemergence, kochia; conditions: approximately 10 d
# Text: as §1
# Foxtail, Giant [12] = assay: Test A postemergence, giant foxtail; conditions: approximately 10 d
# [13] = system: ducksalad (Heteranthera limosa); assay: Test B flooded paddy test, ducksalad; conditions: 250 g ai/ha, Flood (paddy water), 13 to 15 d
# Description: as §2
# [14] = system: ryegrass, Italian (Italian ryegrass, Lolium multiflorum); assay: Test A postemergence, Italian ryegrass; conditions: approximately 10 d
# Text: as §1
# [15] = system: barnyardgrass (Echinochloa crus-galli); assay: Test A preemergence, barnyardgrass; conditions: approximately 10 d
# Text: as §1
# [16] = system: wheat (Triticum aestivum); assay: Test A postemergence, wheat; conditions: approximately 10 d
# Text: as §1
# [17] = system: pigweed (Amaranthus retroflexus); assay: Test A preemergence, pigweed; conditions: approximately 10 d
# Text: as §1
# kochia (Kochia scoparia) [18] = assay: Test A postemergence, kochia; conditions: approximately 10 d
# Text: as §1
compound,measurement,setting,value
CN(C)N=C1[C@H](C(=O)Nc2cccc(F)c2F)[C@@H](c2ccc(C(F)(F)F)cc2)CN1C (relative stereo) [Compound 4],"Plant response rating (0 to 100 scale, 0 is no effect, 100 is complete control)","Foxtail, Giant [1]; 31 g ai/ha",50
same,"Plant response rating (0 to 100 scale, 0 is no effect, 100 is complete control)","Foxtail, Giant [1]; 125 g ai/ha",90
same,"Plant response rating (0 to 100 scale, 0 is no effect, 100 is complete control)",[2]; 31 g ai/ha,0
same,"Plant response rating (0 to 100 scale, 0 is no effect, 100 is complete control)",[2]; 125 g ai/ha,0
same,"Plant response rating (0 to 100 scale, 0 is no effect, 100 is complete control)",[3]; 31 g ai/ha,0
same,"Plant response rating (0 to 100 scale, 0 is no effect, 100 is complete control)",[3]; 125 g ai/ha,10
same,"Plant response rating (0 to 100 scale, 0 is no effect, 100 is complete control)",[4]; 31 g ai/ha,0
same,"Plant response rating (0 to 100 scale, 0 is no effect, 100 is complete control)",[4]; 125 g ai/ha,30
same,"Plant response rating (0 to 100 scale, 0 is no effect, 100 is complete control)",[5]; 31 g ai/ha,60
same,"Plant response rating (0 to 100 scale, 0 is no effect, 100 is complete control)",[5]; 125 g ai/ha,70
same,"Plant response rating (0 to 100 scale, 0 is no effect, 100 is complete control)",corn (Zea mays); 31 g ai/ha,0
same,"Plant response rating (0 to 100 scale, 0 is no effect, 100 is complete control)",corn (Zea mays); 125 g ai/ha,20
same,"Plant response rating (0 to 100 scale, 0 is no effect, 100 is complete control)",[6]; 31 g ai/ha,30
same,"Plant response rating (0 to 100 scale, 0 is no effect, 100 is complete control)",[6]; 125 g ai/ha,50
same,"Plant response rating (scale of 0 to 100, 0 is no effect, 100 is complete control)",[7],55
same,"Plant response rating (0 to 100 scale, 0 is no effect, 100 is complete control)",[8]; 31 g ai/ha,0
same,"Plant response rating (0 to 100 scale, 0 is no effect, 100 is complete control)",[8]; 125 g ai/ha,70
same,"Plant response rating (scale of 0 to 100, 0 is no effect, 100 is complete control)",rice (Oryza sativa),0
same,"Plant response rating (scale of 0 to 100, 0 is no effect, 100 is complete control)",[9],0
same,"Plant response rating (0 to 100 scale, 0 is no effect, 100 is complete control)",[10]; 31 g ai/ha,0
same,"Plant response rating (0 to 100 scale, 0 is no effect, 100 is complete control)",[10]; 125 g ai/ha,60
same,"Plant response rating (0 to 100 scale, 0 is no effect, 100 is complete control)",kochia (Kochia scoparia) [11]; 31 g ai/ha,0
same,"Plant response rating (0 to 100 scale, 0 is no effect, 100 is complete control)",kochia (Kochia scoparia) [11]; 125 g ai/ha,30
same,"Plant response rating (0 to 100 scale, 0 is no effect, 100 is complete control)","Foxtail, Giant [12]; 31 g ai/ha",0
same,"Plant response rating (0 to 100 scale, 0 is no effect, 100 is complete control)","Foxtail, Giant [12]; 125 g ai/ha",80
same,"Plant response rating (scale of 0 to 100, 0 is no effect, 100 is complete control)",[13],75
same,"Plant response rating (0 to 100 scale, 0 is no effect, 100 is complete control)",[14]; 31 g ai/ha,0
same,"Plant response rating (0 to 100 scale, 0 is no effect, 100 is complete control)",[14]; 125 g ai/ha,20
same,"Plant response rating (0 to 100 scale, 0 is no effect, 100 is complete control)",[15]; 31 g ai/ha,50
same,"Plant response rating (0 to 100 scale, 0 is no effect, 100 is complete control)",[15]; 125 g ai/ha,90
same,"Plant response rating (0 to 100 scale, 0 is no effect, 100 is complete control)",[16]; 31 g ai/ha,0
same,"Plant response rating (0 to 100 scale, 0 is no effect, 100 is complete control)",[16]; 125 g ai/ha,20
same,"Plant response rating (0 to 100 scale, 0 is no effect, 100 is complete control)",[17]; 31 g ai/ha,0
same,"Plant response rating (0 to 100 scale, 0 is no effect, 100 is complete control)",[17]; 125 g ai/ha,60
same,"Plant response rating (0 to 100 scale, 0 is no effect, 100 is complete control)",kochia (Kochia scoparia) [18]; 31 g ai/ha,0
same,"Plant response rating (0 to 100 scale, 0 is no effect, 100 is complete control)",kochia (Kochia scoparia) [18]; 125 g ai/ha,40
